Reference: patent publication US10967032B2, “Optimum ratio for herbs combination obtained by using scientific-based formula for hypertension treatment and a composition thereof” (priority 2017, dated 2021)
Values belong to the compound of their own block, whether it stands above or below them.

Key:
[1] = system: voltage-operated calcium channel (VOCC); test: VOCC study: CaCl2-induced vasoconstriction of pre-treated aortic rings; type: cell-based, rat; details: 0.1, 0.3, 1 μM pre-incubation
Experimental: The experiment started by rinsing the mounted aortic rings with normal Krebs' solution for 3 times at 10 minutes interval. After that, the aortic rings were rinsed with EGTA (0.2 mM) contained Ca^2+-free high K^+ Krebs' solution for 10 minutes to eradicate the Ca^2+ residue, followed by rinsing with Ca^2+-free high K^+ Krebs' solution for twice at 10 minutes intervals. The resting potential was re-adjusted to 1.0 g before the application of any chemicals. In the control set, CaCl2 was added cumulatively (0.01-10 mM) into the tissue bath at 3 minutes interval. […] In the experimental groups, the F1-2 was added into tissue baths for 20 minutes before the addition of CaCl2. After that, the concentration-response curves were constructed, and maximum contraction (Cmax) values were recorded and compared to each other.

[2] = system: inositol triphosphate receptor (IP3R); test: IP3R study: PE-induced contraction of pre-treated endothelium-denuded aortic rings; type: cell-based, rat; details: 100 μM pre-incubation; P<0.001
Experimental: Similar with the VOCC mechanism study, three sets of experiments were carried out for investigating IP3R including the positive control set by applying the 2-APB (100 μM), control set (without treatment), and experimental sets by applying F1-2 (100 μl of 0.5, 2, and 8 mg/ml, separately, which equals to final concentration of 0.005, 0.02, and 0.08 mg/ml in tissue bath), in the endothelium-denuded isolated aortic rings. Similar protocol as elaborated in VOCC mechanism study was used to investigate this mechanism study. The only step different from VOCC mechanism study was the cumulative addition of CaCl2 was replaced by adding PE (1 μM) and left for 20 minutes to induce transient contraction after the 20 minutes pre-incubation with either 2-APB (positive control), F1-2 (experimental sets). The Cmax values were recorded and compared among each other.

[3] = system: spontaneous hypertensive rats (SHRs); test: Antihypertensive effect in SHRs, 28 days oral administration, tail-cuff SBP, DBP, MAP; type: in vivo, rat; details: 80 mg/kg oral
Experimental: All the orally administrated drugs were freshly prepared on the day the experiment was carried out. Thirty male SHRs were divided into five groups (n=6 per group) as such negative control, positive control (80 mg/kg of propranolol), and experimental groups (three different dosages for different groups). The weight, systolic BP, diastolic BP, and MAP of all SHRs in five groups were determined before the experiment was carried out and assigned as results for week 0. The negative control group of SHRs was treated with 5 ml/kg of distilled water. The positive control group was treated with 80 mg/kg of propranolol. The experimental groups were treated with 0.24273 (small dose), 0.48546 (medium dose), and 0.97092 g/kg (high dose) of F1-2, separately. Propranolol and F1-2 were prepared by dissolving in 0.5% of CMC prior to the administration. All drugs were orally administrated by using the 14-sized curved feeding needle (Kent Scientific Corporation, Torrington, Conn., USA) every morning after eight hours of fasting the night before, and were treated for 28 days consecutively with their weight, systolic BP, diastolic BP, and MAP measured once a week.
The SBP, DBP, and MAP were measured by using tail-cuff method with the non-invasive blood pressure measurement system, CODA (Kent Scientific Corporation, Torrington, Conn., USA) which was equipped with a controller, laptop CODA software, cuffs, animal restrainers, infrared warming pads, and infrared thermometer. The measurements were performed by the same researcher at the same daytime once weekly. Before the experiments commenced, the SHRs were housed in the restrainer according to their body size and pre-warmed on the warming plate at 32° C. and were covered by warming blanket for at least 15 minutes to intensify the pulsation of the tail artery. The measurements were repeated at least […] for each SHR to obtain at least six accepted measurements (n=6) by the CODA program. The obtained SBP, DBP, MAP of positive control and experimental groups were compared to the negative control.

Compound: COC(=O)C1=C(C)NC(C)=C(C(=O)OC)C1c1ccccc1[N+](=O)[O-] [nifedipine]
suppression of the contractile tone compared to control [1]: at least 80%

contraction tension abolished compared to control [2]: approximately 97%
Compound: NCCOB(c1ccccc1)c1ccccc1 [Formula 2-APB, 2-APB]

Compound: CC(C)NCC(O)COc1cccc2ccccc12 (centres unmarked) [propranolol]
DBP ([3]; 28 days, control 189.19±3.61): 139.69±3.15 mmHg | MAP ([3]; 28 days, control 200.97±3.22): 152.06±3.10 mmHg | SBP ([3]; week 4 (28 days), control 225.81±2.77): 182.08±2.38 mmHg
